Here are results for 20 compounds from PubChem BioAssay AID330 (DTP/NCI, 2004).

Molecules are shown by their SMILES. Values joined by “and” are separate entries in the source; they are usually repeats but may differ in a detail not shown here. Identical values can stand only once. Toxic doses and inconclusive results are not listed. Peptide text beside a SMILES is read from it. * marks the point of attachment. Cbz = O=C(OCc1ccccc1)*

The assay concerns P388 leukemia ip, CD2F1 mice, survival T/C. The experiment in a line: NCI In Vivo Anticancer Drug Screen. Data for tumor model P388 Leukemia (intraperitoneal) in CD2F1 (CDF1) mice. As to conditions: endpoint: median survival time, higher = longer survival. The essentials: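 Mice carrying the transplanted tumor received test compound or vehicle. Survival was recorded in each group, and the value is the treated-group measurement divided by that of the vehicle-treated control group.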

[1] abbreviates: dose: 50.0 mg/kg/injection, schedule: Q01DX005 (ip), vehicle: Klucel (hydroxypropylcellulose) (HPC).
Where [2] appears, read: dose: 100.0 mg/kg/injection, schedule: Q01DX005 (ip), vehicle: Klucel (hydroxypropylcellulose) (HPC).
[3] abbreviates: dose: 200.0 mg/kg/injection, schedule: Q01DX005 (ip), vehicle: Klucel (hydroxypropylcellulose) (HPC).
The mark [4] stands for this setting: dose: 15.0 mg/kg/injection, schedule: Q01DX005 (ip), vehicle: saline with Tween-80.
Where [5] appears, read: dose: 30.0 mg/kg/injection, schedule: Q01DX005 (ip), vehicle: saline with Tween-80.
Setting [6] is: dose: 50.0 mg/kg/injection, schedule: Q01DX005 (ip), vehicle: saline.
Where [7] appears, read: dose: 100.0 mg/kg/injection, schedule: Q01DX005 (ip), vehicle: saline.
The mark [8] stands for this setting: dose: 60.0 mg/kg/injection, schedule: Q01DX005 (ip), vehicle: saline with Tween-80.
Where [9] appears, read: dose: 50.0 mg/kg/injection, schedule: Q01DX009 (ip), vehicle: saline with Tween-80.
The mark [10] stands for this setting: dose: 50.0 mg/kg/injection, schedule: Q01DX005 (ip), vehicle: saline with Tween-80.
The mark [11] stands for this setting: dose: 100.0 mg/kg/injection, schedule: Q01DX005 (ip), vehicle: saline with Tween-80.
Setting [12] is: dose: 200.0 mg/kg/injection, schedule: Q01DX005 (ip), vehicle: saline with Tween-80.
[13] abbreviates: dose: 100.0 mg/kg/injection, schedule: Q01DX009 (ip), vehicle: saline with Tween-80.
[14] abbreviates: dose: 200.0 mg/kg/injection, schedule: Q01DX009 (ip), vehicle: saline with Tween-80.

Consider `COC1=CC(=O)C(C/C=C/c2ccccc2)=CC1=O`, for which the T/C (dose: 2.5 mg/kg/injection, schedule: Q01DX009 (ip), vehicle: saline with Tween-80) is 103 % of control; the T/C (dose: 5.0 mg/kg/injection, schedule: Q01DX009 (ip), vehicle: saline with Tween-80) was 105 % of control; the T/C (dose: 10.0 mg/kg/injection, schedule: Q01DX009 (ip), vehicle: saline with Tween-80) is 105 % of control.

Regarding `CC(=O)Nc1cc(N2CCCCC2)c(N)c2c1C(=O)c1ccccc1C2=O`, the T/C by setting is: under setting [1], 102 % of control; under setting [2], 97 % of control; under setting [3], 98 % of control.

In the case of `CCCCCCC1CC1C(=O)NCCCCCN=C(N)N` (stereo unspecified), the T/C is, setting by setting: (dose: 7.5 mg/kg/injection, schedule: Q01DX009 (ip), vehicle: Klucel (hydroxypropylcellulose) (HPC)) 100 % of control; (dose: 15.0 mg/kg/injection, schedule: Q01DX009 (ip), vehicle: Klucel (hydroxypropylcellulose) (HPC)) 100 % of control; (dose: 30.0 mg/kg/injection, schedule: Q01DX009 (ip), vehicle: Klucel (hydroxypropylcellulose) (HPC)) 107 % of control.

Regarding `Cc1c2cnccc2c(C)c2c1c1ccccc1n2CCCCCCCCCCn1c2ccccc2c2c(C)c3cnccc3c(C)c21`, the T/C (dose: 25.0 mg/kg/injection, schedule: Q04DX002 (ip), vehicle: saline with Tween-80) is 98 % of control; the T/C (dose: 50.0 mg/kg/injection, schedule: Q04DX002 (ip), vehicle: saline with Tween-80) was 92 % of control; the T/C (dose: 100.0 mg/kg/injection, schedule: Q04DX002 (ip), vehicle: saline with Tween-80) was 89 % of control.

`CCCCn1/c(=N/N=Nc2ccccc2)sc2ccccc21`: the T/C by setting is: (dose: 7.5 mg/kg/injection, schedule: Q01DX005 (ip), vehicle: saline with Tween-80) 115 % of control; under setting [4], 117 % of control; under setting [5], 118 % of control.

As to `CCC(C)C(NC(=O)OCc1ccccc1)C(=O)NC(CC(C)C)C(=O)O` (stereo not drawn) (Cbz-Ile-Leu-OH; configuration not given here), the T/C is, setting by setting: under setting [1], 114 % of control; under setting [2], 99 % of control; under setting [3], 99 % of control.

Regarding `CC(=O)Oc1ccc(CO)cc1OC(C)=O`, the T/C runs as follows: under setting [6], 101 % of control and 102 % of control; under setting [7], 106 % of control and 108 % of control.

`C=C(CBr)CCCCC`: the T/C is 104 % of control under setting [8]; 105 % of control (dose: 120.0 mg/kg/injection, schedule: Q01DX005 (ip), vehicle: saline with Tween-80); 117 % of control (dose: 240.0 mg/kg/injection, schedule: Q01DX005 (ip), vehicle: saline with Tween-80).

`CCOC(=O)C(Cc1ccc(N(CCCl)CCCl)cc1)NC(=O)C(Cc1ccccc1)NC=O` (stereo unspecified): the T/C by setting is: (dose: 25.0 mg/kg/injection, schedule: Q01DX009 (ip), vehicle: saline with Tween-80) 172 % of control; under setting [9], 86 % of control; (dose: 100.0 mg/kg/injection, schedule: Q04DX003 (ip), vehicle: saline with Tween-80) 166 % of control; (dose: 200.0 mg/kg/injection, schedule: Q04DX003 (ip), vehicle: saline with Tween-80) 220 % of control.

`COC(=O)c1cc2c3c(ccc2[nH]1)N(C(=O)c1cc2c4c(ccc2[nH]1)N(C(=O)c1cc2c5c(ccc2[nH]1)N(C(N)=O)CC5)CC4)CC3`: the T/C is, setting by setting: (dose: 12.5 mg/kg/injection, schedule: Q01DX005 (ip), vehicle: DMSO) 110 % of control; (dose: 25.0 mg/kg/injection, schedule: Q01DX005 (ip), vehicle: DMSO) 111 % of control; (dose: 50.0 mg/kg/injection, schedule: Q01DX005 (ip), vehicle: DMSO) 105 % of control; (dose: 100.0 mg/kg/injection, schedule: Q01DX005 (ip), vehicle: DMSO) 112 % of control.

In the case of `CCCCN(CCCC)C(=N)c1ccc(OC)c(OC)c1`, the T/C (dose: 6.25 mg/kg/injection, schedule: Q01DX005 (ip), vehicle: saline) was 98 % of control; the T/C (dose: 12.5 mg/kg/injection, schedule: Q01DX005 (ip), vehicle: saline) was 100 % of control; the T/C (dose: 25.0 mg/kg/injection, schedule: Q01DX005 (ip), vehicle: saline) was 100 % of control.

For the compound `COC(=O)C1CCCCOCCOCCOCCOCCOCCCCCC1=O` (stereo unspecified), the T/C runs as follows: under setting [10], 102 % of control; under setting [11], 102 % of control; under setting [12], 94 % of control.

`CN1CCCN(C)C1c1cc([N+](=O)[O-])ccc1O`: the T/C runs as follows: (dose: 6.25 mg/kg/injection, schedule: Q01DX009 (ip), vehicle: saline sonified) 100 % of control; (dose: 12.5 mg/kg/injection, schedule: Q01DX009 (ip), vehicle: saline sonified) 100 % of control; (dose: 25.0 mg/kg/injection, schedule: Q01DX009 (ip), vehicle: saline sonified) 100 % of control.

On to `CCc1c(O)sc2c(c1=O)C(=NCC(C)C)CC(C)(C)N2`, for which the T/C is, setting by setting: under setting [6], 86 % of control; under setting [7], 94 % of control; (dose: 200.0 mg/kg/injection, schedule: Q01DX005 (ip), vehicle: saline) 97 % of control.

On to `COc1ccc(-c2csc(NC(=O)Nc3nc(-c4ccc(OC)cc4)cs3)n2)cc1`, for which the T/C is, setting by setting: under setting [4], 97 % of control; under setting [5], 100 % of control; under setting [8], 87 % of control and 91 % of control.

Regarding `Cc1cc(=O)oc2cc(OC(=O)N(C)C)c(Cl)cc12`, the T/C is 100 % of control under setting [9], 101 % of control under setting [13] and 101 % of control under setting [14].

As to `CCOC(=O)Nc1cc2c(c(N)n1)N=C(c1ccccc1)CS2`, the T/C by setting is: (dose: 75.0 mg/kg/injection, schedule: Q01DX005 (ip), vehicle: Klucel (hydroxypropylcellulose) (HPC)) 100 % of control; (dose: 150.0 mg/kg/injection, schedule: Q01DX005 (ip), vehicle: Klucel (hydroxypropylcellulose) (HPC)) 95 % of control; (dose: 300.0 mg/kg/injection, schedule: Q01DX005 (ip), vehicle: Klucel (hydroxypropylcellulose) (HPC)) 97 % of control.

With `Cn1c(=O)n2n(c1=O)C1(CCO)CCC2(CCO)CC1`, the T/C is, setting by setting: under setting [10], 99 % of control; under setting [11], 103 % of control; under setting [12], 100 % of control.

Consider `CCCCCCC(=O)/C=C/c1ccccc1OC(=O)c1ccc([N+](=O)[O-])cc1`, for which the T/C was 98 % of control under setting [9], 99 % of control under setting [13] and 96 % of control under setting [14].

With `COc1cc(/C=C2/Cc3ccccc3C2=O)ccc1O`, the T/C reads like this: (dose: 60.0 mg/kg/injection, schedule: Q01DX005 (ip), vehicle: saline) 106 % of control; (dose: 120.0 mg/kg/injection, schedule: Q01DX005 (ip), vehicle: saline) 106 % of control; (dose: 240.0 mg/kg/injection, schedule: Q01DX005 (ip), vehicle: saline) 96 % of control.
